{"source": "patent US5380533A", "about": "“Gastroresistant pharmaceutical formulations for oral administration containing bile acids” (Alfa Wassermann S.p.A., priority 1991, dated 1995)", "origin": "cited, not measured here", "key": {"[1]": {"details": "after having crossed unabsorbed and undissolved the stomach"}, "[2]": {"details": "intestinal pH below 8.4; intestinal bacterial flora"}, "[3]": {"details": "free bile acid"}, "[4]": {"details": "pH units"}}}
{"smiles": "C[C@H](CCC(=O)O)[C@H]1CC[C@H]2[C@@H]3[C@@H](O)C[C@@H]4C[C@H](O)CC[C@]4(C)[C@H]3CC[C@]12C", "note": "[ursodeoxycholic acid]", "values": [{"measurement": "dissolution in the intestine", "setting": "[1]", "value": "dissolve very slowly in the intestine"}, {"measurement": "fate of a portion at lower values of intestinal pH", "setting": "[2]", "value": "is not absorbed and undergoes a biotransformation to lithocholic acid"}, {"measurement": "water solubility", "setting": "[3]", "value": 53, "unit": "µM"}, {"measurement": "pH at which complete solubilization takes place", "setting": "[4]", "value": 8.47}]}
